Biological target: recombinant human SYK (GST-hSYK fusion protein) (Homo sapiens, UniProt P43405)
Test: biochemical
Description: Homogeneous Time-Resolved Fluorescence (HTRF) Assay for the Recombinant Human SYK Enzyme:

SMILES: COC(=O)C(=O)N1CCC(O)(c2ncc(-c3cc(C)cc(Nc4nccc(C(F)(F)F)n4)c3)s2)C1 (stereo not shown) [54B-27]
- IC50 (rhSYK Activity, Table 54B): < 100 nM

SMILES: Cc1cc(Nc2nccc(C(F)(F)F)n2)cc(-c2cnc(C3(O)CCN(C(=O)C(O)CO)C3)s2)c1 (stereo not shown) [54B-28]
- IC50 (rhSYK Activity, Table 54B): < 100 nM

SMILES: Cc1cc(Nc2nccc(C(F)(F)F)n2)cc(-c2cnc(C3(O)CCN(C(=O)c4ccno4)C3)s2)c1 (stereo not shown) [54B-29]
- IC50 (rhSYK Activity, Table 54B): < 100 nM

SMILES: Cc1cc(Nc2nccc(C(F)(F)F)n2)cc(-c2cnc(C3(O)CCN(C(=O)C4(O)CCC4)C3)s2)c1 (stereo not shown) [54B-30]
- IC50 (rhSYK Activity, Table 54B): < 100 nM

SMILES: Cc1cc(Nc2nccc(C(F)(F)F)n2)cc(-c2cnc(C3(O)CCN(C4CCC(C(=O)O)C4)C3)s2)c1 (stereo not shown) [54B-32]
- IC50 (rhSYK Activity, Table 54B): < 100 nM

SMILES: COC(=O)C1CCC(N2CCC(O)(c3ncc(-c4cc(C)cc(Nc5nccc(C(F)(F)F)n5)c4)s3)C2)C1 (stereo not shown) [54B-34]
- IC50 (rhSYK Activity, Table 54B): < 100 nM

SMILES: COC(=O)c1cccc(N2CCC(O)(c3ncc(-c4cc(C)cc(Nc5nccc(C(F)(F)F)n5)c4)s3)C2)c1 (stereo not shown) [54B-35]
- IC50 (rhSYK Activity, Table 54B): 100 to 1000 nM

SMILES: Cc1cc(Nc2nccc(C(F)(F)F)n2)cc(-c2cnc(C3(O)CC(C(=O)O)N(C(N)=O)C3)s2)c1 (stereo not shown) [54B-36]
- IC50 (rhSYK Activity, Table 54B): < 100 nM

SMILES: COC(=O)C1CC(O)(c2ncc(-c3cc(C)cc(Nc4nccc(C(F)(F)F)n4)c3)s2)CN1C(N)=O (stereo not shown) [54B-37]
- IC50 (rhSYK Activity, Table 54B): < 100 nM

SMILES: OC1(c2ncc(-c3cccc(Nc4nccc(C(F)(F)F)n4)c3)s2)CCNC1 (stereo not shown) [54C-1]
- IC50 (rhSYK Activity, Table 54C): < 100 nM

SMILES: Cc1cc(Nc2nccc(C(F)(F)F)n2)cc(-c2cnc(C(NS(C)(=O)=O)(C3CC3)C3CC3)s2)c1 [61A-1]
- IC50 (rhSYK Activity, Table 61A): < 100 nM

SMILES: Cc1cc(Nc2nccc(C(F)(F)F)n2)cc(-c2cnc(C(N[S+]([O-])C(C)(C)C)(C3CC3)C3CC3)s2)c1 (stereo not shown) [61A-2]
- IC50 (rhSYK Activity, Table 61A): 100 to 1000 nM

SMILES: Cc1cc(Nc2nccc(C(F)(F)F)n2)cc(-c2cnc(C(C)(C)N)s2)c1 [61A-3]
- IC50 (rhSYK Activity, Table 61A): < 100 nM

SMILES: Cc1cc(Nc2nccc(C(F)(F)F)n2)cc(-c2cnc(C(C)(C)NS(C)(=O)=O)s2)c1 [61A-4]
- IC50 (rhSYK Activity, Table 61A): < 100 nM

SMILES: Cc1cc(Nc2nccc(C(F)(F)F)n2)cc(-c2cnc(C3(NC(=O)NC(N)=O)COC3)s2)c1 [65-1]
- IC50 (rhSYK Activity, Table 65): < 100 nM

SMILES: COc1ccnc(Nc2cc(C)cc(-c3cnc(C4(NC(=O)NC(N)=O)CCC4)s3)c2)n1 [65-2]
- IC50 (rhSYK Activity, Table 65): < 100 nM

SMILES: Cc1cc(Nc2ncccn2)cc(-c2cnc(C3(NC(=O)NC(N)=O)CCC3)s2)c1 [65-3]
- IC50 (rhSYK Activity, Table 65): < 100 nM

SMILES: Cc1cc(Nc2nccc(C3CC3)n2)cc(-c2cnc(C3(NC(=O)NC(N)=O)CCC3)s2)c1 [65-4]
- IC50 (rhSYK Activity, Table 65): < 100 nM

SMILES: Cc1cc(Nc2nccc(C(F)(F)F)n2)cc(-c2cnc(C3(NC(=O)NC(N)=O)CCNC(=O)CC3)s2)c1 (stereo not shown) [65-6]
- IC50 (rhSYK Activity, Table 65): < 100 nM

SMILES: Cc1cc(Nc2ncc(Cl)c(C(F)(F)F)n2)cc(-c2cnc(C3(NC(=O)NC(N)=O)CCNC(=O)CC3)s2)c1 (stereo not shown) [65-7]
- IC50 (rhSYK Activity, Table 65): < 100 nM

SMILES: COc1nc(Nc2cc(C)cc(-c3cnc(C4(NC(=O)NC(N)=O)CCC4)s3)c2)ncc1Cl [65-8]
- IC50 (rhSYK Activity, Table 65): < 100 nM

SMILES: CC(=O)NC1(c2ncc(-c3cc(C)cc(Nc4nccc(C(F)(F)F)n4)c3)s2)COC1 [66-1]
- IC50 (hSYK Activity, table after Example 66): < 100 nM

SMILES: Cc1cc(Nc2nccc(C(=O)N3CCOCC3)n2)cc(-c2cnc(C(C)(O)C(F)(F)F)s2)c1 (stereo not shown) [69-1]
- IC50 (rhSYK Activity, table after Example 69): 100 to 1000 nM

SMILES: Cc1cc(Nc2nccc(C(F)(F)F)n2)cc(-c2cnc(C(C)(C)S(N)(=O)=O)s2)c1 [74A-1]
- IC50 (rhSYK Activity, Table 74A): < 100 nM

SMILES: CC(C)(c1ncc(-c2cccc(Nc3nccc(C(F)(F)F)n3)c2)s1)S(C)(=O)=O [74A-2]
- IC50 (rhSYK Activity, Table 74A): < 100 nM

SMILES: CC(C)(c1ncc(-c2cccc(Nc3nccc(C(F)(F)F)n3)c2)s1)S(N)(=O)=O [74A-3]
- IC50 (rhSYK Activity, Table 74A): < 100 nM

SMILES: COc1ccnc(Nc2cc(C)cc(-c3cnc(C(C)(C)S(N)(=O)=O)s3)c2)n1 [74A-4]
- IC50 (rhSYK Activity, Table 74A): < 100 nM

SMILES: Cc1cc(Nc2ncc(F)c(C)n2)cc(-c2cnc(C(C)(C)S(N)(=O)=O)s2)c1 [74A-5]
- IC50 (rhSYK Activity, Table 74A): < 100 nM

SMILES: Cc1cc(Nc2ncc(F)c(C3CC3)n2)cc(-c2cnc(C(C)(C)S(N)(=O)=O)s2)c1 [74A-6]
- IC50 (rhSYK Activity, Table 74A): < 100 nM

SMILES: COc1nc(Nc2cc(C)cc(-c3cnc(C(C)(C)S(N)(=O)=O)s3)c2)ncc1Cl [74A-7]
- IC50 (rhSYK Activity, Table 74A): < 100 nM

SMILES: COc1nc(Nc2cc(C)cc(-c3cnc(C(C)(C)S(N)(=O)=O)s3)c2)ncc1F [74A-8]
- IC50 (rhSYK Activity, Table 74A): < 100 nM

SMILES: Cc1cc(Nc2ncc(Cl)c(C)n2)cc(-c2cnc(C(C)(C)S(N)(=O)=O)s2)c1 [74A-9]
- IC50 (rhSYK Activity, Table 74A): < 100 nM

SMILES: CC(C)(c1ncc(-c2cc(Nc3nccc(C(F)(F)F)n3)cc(C(F)F)c2)s1)S(N)(=O)=O [74A-11]
- IC50 (rhSYK Activity, Table 74A): < 100 nM

SMILES: Cc1cc(Nc2nccc(C)n2)cc(-c2cnc(C(C)(C)S(N)(=O)=O)s2)c1 [74A-12]
- IC50 (rhSYK Activity, Table 74A): < 100 nM

SMILES: Cc1cc(Nc2nccc(C3CC3)n2)cc(-c2cnc(C(C)(C)S(N)(=O)=O)s2)c1 [74A-13]
- IC50 (rhSYK Activity, Table 74A): < 100 nM

SMILES: COC(=O)CNS(=O)(=O)C(C)(C)c1ncc(-c2cc(C)cc(Nc3nccc(C(F)(F)F)n3)c2)s1 [74A-14]
- IC50 (rhSYK Activity, Table 74A): < 100 nM

SMILES: Cc1cc(Nc2nccc(C(F)(F)F)n2)cc(-c2cnc(C(C)(C)S(=O)(=O)NCC(=O)O)s2)c1 [74A-15]
- IC50 (rhSYK Activity, Table 74A): < 100 nM
